Experimental data from ChEMBL document CHEMBL4364295, “Discovery of a First-in-Class Receptor Interacting Protein 2 (RIP2) Kinase Specific Clinical Candidate, 2-((4-(Benzo[d]thiazol-5-ylamino)-6-(tert-butylsulfonyl)quinazolin-7-yl)oxy)ethyl Dihydrogen Phosphate, for the Treatment of Inflammatory Diseases” (J Med Chem, 2019).

Experiments:
[1] = Unbound fraction in dog blood; format: ADME, tissue-based, Canis lupus familiaris
[2] = target: Vascular endothelial growth factor receptor 2 (Homo sapiens) (UniProt P35968); assay: Inhibition of human VEGFR2 at 1 uM using poly[Glu:Tyr] (4:1) as substrate in presence of [gamma-33P]ATP relative to control
[3] = Terminal half life in Sprague-Dawley rat at 2 mg/kg, po or 0.5 mg/kg, iv by LC/MS/MS analysis; format: ADME, organism-based; settings: in vivo, read-out: beta t1/2 (converted)
[4] = target: T1, Ephrin type-A receptor 6 (Homo sapiens) (UniProt Q9UF33); assay: Inhibition of human EPHA6 at 1 uM using poly[Glu:Tyr] (4:1) as substrate in presence of [gamma-33P]ATP relative to control
T1 sequence (whole entry): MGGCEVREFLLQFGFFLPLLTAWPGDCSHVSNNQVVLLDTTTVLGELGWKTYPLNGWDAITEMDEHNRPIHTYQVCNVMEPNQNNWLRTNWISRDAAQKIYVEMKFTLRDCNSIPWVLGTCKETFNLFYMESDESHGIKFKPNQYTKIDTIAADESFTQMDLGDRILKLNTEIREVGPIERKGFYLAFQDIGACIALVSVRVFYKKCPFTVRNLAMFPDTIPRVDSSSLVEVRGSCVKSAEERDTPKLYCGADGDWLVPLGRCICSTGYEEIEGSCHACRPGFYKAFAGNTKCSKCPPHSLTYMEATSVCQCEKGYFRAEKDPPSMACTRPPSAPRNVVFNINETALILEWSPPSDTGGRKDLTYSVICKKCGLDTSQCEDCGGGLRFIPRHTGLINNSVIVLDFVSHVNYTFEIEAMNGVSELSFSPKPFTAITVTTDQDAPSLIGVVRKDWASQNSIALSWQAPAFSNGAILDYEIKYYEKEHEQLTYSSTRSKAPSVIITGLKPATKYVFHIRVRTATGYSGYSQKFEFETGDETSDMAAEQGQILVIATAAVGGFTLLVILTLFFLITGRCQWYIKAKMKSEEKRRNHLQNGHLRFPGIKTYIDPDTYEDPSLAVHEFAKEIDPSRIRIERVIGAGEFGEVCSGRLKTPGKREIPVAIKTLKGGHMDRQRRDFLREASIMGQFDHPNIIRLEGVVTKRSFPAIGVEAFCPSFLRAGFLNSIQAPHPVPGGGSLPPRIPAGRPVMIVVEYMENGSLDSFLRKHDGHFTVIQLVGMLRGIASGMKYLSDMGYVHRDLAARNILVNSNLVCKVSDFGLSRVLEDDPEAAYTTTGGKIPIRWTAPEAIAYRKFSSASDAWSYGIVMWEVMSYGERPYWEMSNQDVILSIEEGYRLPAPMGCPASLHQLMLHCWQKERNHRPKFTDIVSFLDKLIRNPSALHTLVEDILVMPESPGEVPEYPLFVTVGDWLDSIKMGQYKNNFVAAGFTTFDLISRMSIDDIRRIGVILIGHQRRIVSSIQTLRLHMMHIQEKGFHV

[5] = Terminal half life in Gottingen minipig at 1 mg/kg, po or 0.4 mg/kg, iv by LC/MS/MS analysis; format: ADME, organism-based, Sus scrofa; settings: pig, in vivo, read-out: beta t1/2 (converted)
[6] = Cmax in Sprague-Dawley rat at 200 mg/kg, po using crystalline sample during 7 day dose ranging study by LC/MS/MS analysis; format: ADME, organism-based; design: dose 200 mg/kg, route oral; settings: in vivo
Intestinal mucosa = assay: Antiinflammatory activity in crohn's disease patient derived inflamed intestinal mucosa assessed as reduction in IL1beta production measured after overnight incubation by immunoassay; format: functional, tissue-based; settings: Homo sapiens
[7] = target: T2, Nucleotide-binding oligomerization domain-containing protein 2 (Homo sapiens, UniProt Q9HC29); assay: Inhibition of NOD2 in human monocytes assessed as reduction in MDP-induced TNFalpha production preincubated for 30 mins followed by MDP-stimulation and measured after 6 hrs by immunoassay; format: cell-based
[8] = target: Receptor-interacting serine/threonine-protein kinase 2 (Homo sapiens, UniProt O43353); assay: Inhibition of fluorescent-labelled ligand binding to human RIP2K preincubated for 10 mins followed by fluorescent-labelled ligand addition and measured after 10 mins by fluorescence polarization assay
[9] = Volume of distribution at steady state in Sprague-Dawley rat at 2 mg/kg, po or 0.5 mg/kg, iv by LC/MS/MS analysis; format: ADME, organism-based; settings: in vivo, read-out: Vdss
[10] = Terminal half life in Beagle dog at 2 mg/kg, po or 1.1 mg/kg, iv by LC/MS/MS analysis; format: ADME, organism-based, Canis lupus familiaris; settings: in vivo, read-out: beta t1/2 (converted)
[11] = Clearance in Sprague-Dawley rat at 2 mg/kg, po or 0.5 mg/kg, iv by LC/MS/MS analysis; format: ADME, organism-based; settings: in vivo
[12] = Clearance in minipig hepatocytes; format: ADME, cell-based, Sus scrofa, Hepatocyte; settings: pig
[13] = target: T2, Nucleotide-binding oligomerization domain-containing protein 2; assay: Inhibition of human NOD2 expressed in HEK293 cells assessed as reduction in MDP-induced IL8 production measured after 22 hrs by HTRF fluorescence assay; format: cell-based
[14] = Prodrug conversion in Han Wistar rat brain assessed as 2-((4-(Benzo[d]thiazol-5-ylamino)-6-(tert-butylsulfonyl)quinazolin-7-yl)oxy)ethanol formation at 2 mg/kg, iv administered as infusion for 4 hrs; format: ADME, organism-based; settings: in vivo
[15] = Prodrug conversion in rat hepatocytes assessed as 2-(4-(benzo[d]thiazol-5-ylamino)-7-(2-hydroxyethoxy)quinazolin-6-ylsulfonyl)-2-methylpropan-1-ol formation at 20 uM measured after 4 hrs; format: ADME, cell-based, Hepatocyte
[16] = Half life in dog blood; format: ADME, tissue-based, Canis lupus familiaris
[17] = Drug uptake in Beagle dog systemic circulation at 2 mg/kg, po or 0.9 mg/kg, iv by LC/MS/MS analysis; format: ADME, organism-based, Canis lupus familiaris; settings: in vivo
[18] = Prodrug conversion in Han Wistar rat eye assessed as 2-((4-(Benzo[d]thiazol-5-ylamino)-6-(tert-butylsulfonyl)quinazolin-7-yl)oxy)ethanol formation at 2 mg/kg, iv administered as infusion for 4 hrs; format: ADME, organism-based; settings: in vivo
[19] = Drug uptake in Sprague-Dawley rat systemic circulation at 2 mg/kg, po or 1.1 mg/kg, iv by LC/MS/MS analysis; format: ADME, organism-based; settings: in vivo
[20] = Prodrug conversion in rat hepatocytes assessed as benzothiazole ring opening at 20 uM measured after 4 hrs; format: ADME, cell-based, Hepatocyte
[21] = Prodrug conversion in human hepatocytes assessed as hydrogenation at 20 uM measured after 4 hrs; format: ADME, cell-based, Hepatocyte
[22] = Solubility of the compound in FeSSIF; format: physicochemical; settings: simulated gi fluid
[23] = Prodrug conversion in rat hepatocytes assessed as 2-(4-(benzo[d]thiazol-5-ylamino)-6-(tert-butylsulfonyl)-1,2,3,4-tetrahydroquinazolin-7-yloxy)ethanol formation at 20 uM measured after 4 hrs; format: ADME, cell-based, Hepatocyte
[24] = Prodrug conversion in rat hepatocytes assessed as (2S,3S,4S,5R,6R)-6-(2-(4-(benzo[d]thiazol-5-ylamino)-6-(tert-butylsulfonyl)quinazolin-7-yloxy)ethoxy)-3,4,5-trihydroxytetrahydro-2H-pyran-2-carboxylic acid formation at 20 uM measured after 4 hrs; format: ADME, cell-based, Hepatocyte
[25] = Toxicity in Gottingen minipig during 6 week study; design: species or system Sus scrofa; settings: pig, in vivo, 1008 h
[26] = Prodrug conversion in minipig hepatocytes assessed as oxidation at 20 uM measured after 4 hrs; format: ADME, cell-based, Sus scrofa, Hepatocyte; settings: pig

T2 sequence (Q9HC29 whole entry, the tested form may be a part): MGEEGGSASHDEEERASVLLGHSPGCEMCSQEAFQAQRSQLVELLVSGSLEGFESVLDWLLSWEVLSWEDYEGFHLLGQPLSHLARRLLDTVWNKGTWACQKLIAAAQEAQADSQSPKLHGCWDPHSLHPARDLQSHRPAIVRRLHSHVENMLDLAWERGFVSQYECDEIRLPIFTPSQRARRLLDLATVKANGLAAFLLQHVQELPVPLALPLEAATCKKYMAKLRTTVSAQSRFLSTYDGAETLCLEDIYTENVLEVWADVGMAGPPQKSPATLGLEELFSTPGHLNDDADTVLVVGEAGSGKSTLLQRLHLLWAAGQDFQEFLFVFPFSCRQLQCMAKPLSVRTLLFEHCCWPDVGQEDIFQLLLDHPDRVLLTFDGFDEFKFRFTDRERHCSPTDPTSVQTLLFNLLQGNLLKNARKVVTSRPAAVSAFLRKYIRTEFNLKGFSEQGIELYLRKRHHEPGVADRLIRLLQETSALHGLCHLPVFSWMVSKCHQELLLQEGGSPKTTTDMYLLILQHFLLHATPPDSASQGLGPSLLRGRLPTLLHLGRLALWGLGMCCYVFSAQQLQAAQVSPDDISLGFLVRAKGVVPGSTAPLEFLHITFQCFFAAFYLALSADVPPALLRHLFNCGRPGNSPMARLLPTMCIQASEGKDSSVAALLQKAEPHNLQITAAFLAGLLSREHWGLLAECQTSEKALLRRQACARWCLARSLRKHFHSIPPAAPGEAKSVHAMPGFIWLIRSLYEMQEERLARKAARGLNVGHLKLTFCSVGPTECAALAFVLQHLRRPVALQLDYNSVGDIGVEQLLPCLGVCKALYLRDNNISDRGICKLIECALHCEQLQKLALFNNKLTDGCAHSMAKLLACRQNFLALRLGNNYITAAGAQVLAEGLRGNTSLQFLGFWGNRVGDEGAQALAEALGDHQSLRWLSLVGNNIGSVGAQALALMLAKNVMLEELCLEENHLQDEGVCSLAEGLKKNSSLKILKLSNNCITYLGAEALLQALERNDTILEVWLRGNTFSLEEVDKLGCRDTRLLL
Chain of Receptor-interacting serine/threonine-protein kinase 2 (O43353 whole entry): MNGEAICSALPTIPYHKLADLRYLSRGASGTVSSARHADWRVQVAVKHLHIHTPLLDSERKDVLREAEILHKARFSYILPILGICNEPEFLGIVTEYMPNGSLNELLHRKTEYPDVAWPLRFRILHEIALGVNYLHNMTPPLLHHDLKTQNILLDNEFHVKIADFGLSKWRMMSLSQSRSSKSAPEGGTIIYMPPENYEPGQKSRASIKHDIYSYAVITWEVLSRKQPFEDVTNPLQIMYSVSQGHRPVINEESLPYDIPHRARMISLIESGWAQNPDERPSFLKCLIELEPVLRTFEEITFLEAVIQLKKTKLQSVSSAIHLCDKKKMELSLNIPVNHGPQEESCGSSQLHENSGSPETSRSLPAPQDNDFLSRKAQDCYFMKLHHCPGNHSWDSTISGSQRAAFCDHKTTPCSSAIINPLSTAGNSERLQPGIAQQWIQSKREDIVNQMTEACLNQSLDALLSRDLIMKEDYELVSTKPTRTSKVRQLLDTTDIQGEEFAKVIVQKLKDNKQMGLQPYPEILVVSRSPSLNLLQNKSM
Chain of Vascular endothelial growth factor receptor 2 (Homo sapiens) (P35968 whole entry): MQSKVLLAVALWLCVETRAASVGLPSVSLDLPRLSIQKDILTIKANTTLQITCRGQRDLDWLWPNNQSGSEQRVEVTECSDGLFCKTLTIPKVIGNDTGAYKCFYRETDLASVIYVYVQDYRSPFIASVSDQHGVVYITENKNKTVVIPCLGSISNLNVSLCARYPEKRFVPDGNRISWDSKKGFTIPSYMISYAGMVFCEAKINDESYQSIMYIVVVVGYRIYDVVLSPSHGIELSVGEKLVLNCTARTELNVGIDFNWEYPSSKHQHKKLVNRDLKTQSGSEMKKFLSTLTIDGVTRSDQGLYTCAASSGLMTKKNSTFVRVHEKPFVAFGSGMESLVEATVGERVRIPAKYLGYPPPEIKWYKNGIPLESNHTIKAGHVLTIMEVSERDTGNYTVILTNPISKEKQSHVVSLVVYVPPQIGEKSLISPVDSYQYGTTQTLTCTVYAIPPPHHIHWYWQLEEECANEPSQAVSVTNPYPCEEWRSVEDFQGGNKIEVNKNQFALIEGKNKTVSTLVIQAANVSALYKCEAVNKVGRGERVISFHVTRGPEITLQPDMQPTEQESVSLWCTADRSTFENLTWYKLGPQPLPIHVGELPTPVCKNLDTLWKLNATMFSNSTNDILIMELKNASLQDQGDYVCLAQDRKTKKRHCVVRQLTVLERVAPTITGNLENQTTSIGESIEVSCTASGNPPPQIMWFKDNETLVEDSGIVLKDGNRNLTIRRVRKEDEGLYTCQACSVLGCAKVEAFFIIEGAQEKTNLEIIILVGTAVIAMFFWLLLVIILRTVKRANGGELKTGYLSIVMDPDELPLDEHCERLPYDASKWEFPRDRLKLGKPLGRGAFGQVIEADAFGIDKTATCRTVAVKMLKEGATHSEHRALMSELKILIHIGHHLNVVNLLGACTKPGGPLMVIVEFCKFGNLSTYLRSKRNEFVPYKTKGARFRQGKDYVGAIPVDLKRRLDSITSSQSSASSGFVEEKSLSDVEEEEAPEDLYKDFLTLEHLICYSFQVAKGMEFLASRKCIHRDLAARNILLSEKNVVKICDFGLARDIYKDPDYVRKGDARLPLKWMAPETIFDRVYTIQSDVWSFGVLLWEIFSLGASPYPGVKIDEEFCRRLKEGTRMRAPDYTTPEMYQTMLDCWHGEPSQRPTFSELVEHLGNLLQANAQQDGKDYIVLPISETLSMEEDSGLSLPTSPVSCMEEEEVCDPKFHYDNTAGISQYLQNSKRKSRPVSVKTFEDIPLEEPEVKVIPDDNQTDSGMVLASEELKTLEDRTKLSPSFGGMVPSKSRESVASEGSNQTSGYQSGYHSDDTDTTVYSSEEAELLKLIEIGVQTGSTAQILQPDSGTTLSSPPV

CC(C)(C)S(=O)(=O)c1cc2c(Nc3ccc4scnc4c3)ncnc2cc1OCCO
fraction unbound [1]: 0.089 | inhibition [2]: 70 to 90% | half-life [3]: 4.4 h | inhibition [4]: 70 to 90% | half-life [5]: 1.9 h | Cmax [6]: 4900 ng/mL | Activity (Intestinal mucosa): Dose-dependent effect | IC50 (Intestinal mucosa): 10 nM | inhibition [7]: Dose-dependent effect | IC50 [8]: 5 nM | Vd [9]: 4.1 L/kg | half-life [10]: 5.1 h | clearance [11]: 27 mL/min/kg | CLH [12]: 0.55 mL/min/g | IC50 [13]: 4 nM | inhibition [13]: Dose-dependent effect

CC(C)(C)S(=O)(=O)c1cc2c(Nc3ccc4scnc4c3)ncnc2cc1OCCOP(=O)(O)O.[CaH2]
Drug metabolism [14]: Metabolite_Detected | Drug metabolism [15]: Metabolite_Detected | half-life [16]: 0.35 h | Drug uptake [17]: Not Active | Drug metabolism [18]: Metabolite_Detected | Drug uptake [19]: Not Active | Drug metabolism [20]: Metabolite_Detected | Drug metabolism [21]: Metabolite_Detected | solubility [22]: Soluble | Drug metabolism [23]: Metabolite_Detected | Drug metabolism [24]: Metabolite_Detected | Activity [25]: Non-Toxic | Drug metabolism [26]: Metabolite_Detected
